Reference: PMC7794376 (Nature Communications, 2021)
≈ marks a conversion by molar mass, not a printed value. Where “and” joins values, the source holds several entries; their conditions need not be identical. Identical values can stand only once. Like-named read-outs stand apart in the source and are kept apart here.

Assays:
human CoaB (HCoaB) = human CoaB (HCoaB) (Homo sapiens, UniProt Q9HAB8); test: EnzChek pyrophosphate assay, HCoaB; assay type: biochemical; details: replicates R1-R3; for Activity: slope of absorbance at 360 nm vs time (s)
Chain of human CoaB (HCoaB) (Q9HAB8 whole entry): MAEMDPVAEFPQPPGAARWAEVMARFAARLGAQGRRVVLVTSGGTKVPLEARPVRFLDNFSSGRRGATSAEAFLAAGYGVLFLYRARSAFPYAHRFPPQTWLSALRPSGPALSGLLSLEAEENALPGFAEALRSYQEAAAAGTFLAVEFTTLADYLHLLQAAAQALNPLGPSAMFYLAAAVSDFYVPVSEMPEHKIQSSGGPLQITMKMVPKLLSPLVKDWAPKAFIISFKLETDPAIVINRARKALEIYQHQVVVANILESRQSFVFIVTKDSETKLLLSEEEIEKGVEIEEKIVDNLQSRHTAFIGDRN

MsmCoaBC = MsmCoaBC (Mycolicibacterium smegmatis, UniProt A0QWT2); test: EnzChek pyrophosphate assay, CoaB activity of MsmCoaBC; assay type: biochemical, Mycobacterium smegmatis
Chain of MsmCoaBC (A0QWT2 whole entry): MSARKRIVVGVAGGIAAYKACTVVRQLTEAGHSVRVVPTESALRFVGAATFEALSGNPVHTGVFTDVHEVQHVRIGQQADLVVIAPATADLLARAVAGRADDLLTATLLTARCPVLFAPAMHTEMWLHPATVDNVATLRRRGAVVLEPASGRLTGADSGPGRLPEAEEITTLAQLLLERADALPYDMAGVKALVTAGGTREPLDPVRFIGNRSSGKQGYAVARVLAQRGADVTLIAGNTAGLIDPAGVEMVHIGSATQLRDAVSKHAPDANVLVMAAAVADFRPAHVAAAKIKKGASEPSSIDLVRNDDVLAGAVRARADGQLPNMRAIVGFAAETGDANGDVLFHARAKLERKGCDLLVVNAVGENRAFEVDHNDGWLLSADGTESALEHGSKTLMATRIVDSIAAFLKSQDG
Protocol: The commercially available EnzChek pyrophosphate assay kit (E-6645) (Life Technologies) was used for this assay. […] In the assays with HCoaB an enzyme concentration of 1 µM was used instead. […] Assays were performed on either a CLARIOstar or PHERAstar microplate reader (BMG Labtech) in 96-well plates (Greiner). A substrate mixture containing the substrates and the inhibitor was pre-incubated at 25 °C for 10 min. An enzyme solution was prepared and separately pre-incubated at 25 °C for 10 min. The reaction was initiated by the addition of the substrates to the solution containing the enzyme to a final volume of 75 µL. Enzymatic activity was monitored by following the absorbance at 360 nm for 30 min (100 cycles/20 s each cycle) and only the steady-state region of the assay was used for data analysis. Assays were performed in triplicates, including a negative control (lacking PPA) and a positive control (lacking inhibitor).

MtbCoaBC [1] = biological target: T1, MtbCoaBC (Mycobacterium tuberculosis, UniProt P9WNZ1); test: High-throughput end-point pyrophosphate quantification assay (Biomol Green); assay type: biochemical; details: MtbCoaB activity; end-point, 2 µM CTP, 40 µM L-cysteine, 30 µM PPA; read-out: IC50 biomol green assay
T1 sequence (P9WNZ1 whole entry): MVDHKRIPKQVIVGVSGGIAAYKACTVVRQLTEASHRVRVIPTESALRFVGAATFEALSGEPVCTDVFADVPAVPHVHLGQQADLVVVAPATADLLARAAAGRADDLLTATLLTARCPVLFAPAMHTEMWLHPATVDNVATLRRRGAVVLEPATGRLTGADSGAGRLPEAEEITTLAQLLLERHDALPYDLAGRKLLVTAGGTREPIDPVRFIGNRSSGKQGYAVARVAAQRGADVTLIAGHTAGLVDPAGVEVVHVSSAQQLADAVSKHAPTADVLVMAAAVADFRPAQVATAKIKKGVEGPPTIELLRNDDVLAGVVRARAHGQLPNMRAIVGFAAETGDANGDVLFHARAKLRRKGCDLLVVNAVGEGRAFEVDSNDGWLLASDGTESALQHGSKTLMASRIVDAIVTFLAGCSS

MtbCoaBC [2] = biological target: T1, MtbCoaBC; test: Competition assays, first half of CoaB reaction (EnzChek, variable CTP or PPA); assay type: biochemical; details: in words
MtbCoaBC [3] = biological target: T1, MtbCoaBC; test: CMP quantification assay (UPLC), second half of CoaB reaction, variable L-cysteine; assay type: biochemical; details: for CMP formation rate, uM CMP/uM protein.s-1: MtbCoaBC 32 nM, replicates R1-R3
M. tuberculosis H37Rv = test: MIC determination in different media; assay type: cell-based; details: Mycobacterium tuberculosis, read-out: Minimum inhibitory concentration (MIC)
[4] = system: M. tuberculosis coaBC Tet-OFF conditional knockdown; assay type: cell-based, Mycobacterium tuberculosis; details: GAST/Fe minimal media
[5] = 50 uM 1b, relative to average DMSO CT
[6] = 100 uM 1b, relative to average DMSO CT
[7] = MsmCoaBC, 1b at concentration 1 (log 0; unit not given)
[8] = MsmCoaBC, 1b at concentration 2 (log 0.30103; unit not given)
[9] = MsmCoaBC, 0.015625 uM 1b, relative to average DMSO CT, replicates R1-R3
[10] = MsmCoaBC, 0.015625 uM 1b, replicates R1-R3
[11] = MsmCoaBC, 0.03125 uM 1b, relative to average DMSO CT, replicates R1-R3
[12] = MsmCoaBC, 0.03125 uM 1b, replicates R1-R3
[13] = MsmCoaBC, 0.0625 uM 1b, relative to average DMSO CT, replicates R1-R3
[14] = MsmCoaBC, 0.0625 uM 1b, replicates R1-R3
[15] = MsmCoaBC, 0.25 uM 1b, relative to average DMSO CT, replicates R1-R3
[16] = MsmCoaBC, 0.25 uM 1b, replicates R1-R3
[17] = MsmCoaBC, 0.5 uM 1b, replicates R1-R3

O=C(c1ccc(O)cc1)c1ccc(O)c(O)c1O [compound 1b]
inhibition at 25 µM (human CoaB (HCoaB); 25 uM 1b): 17.3% | Activity (human CoaB (HCoaB); 25 uM 1b): 0.0001127 and 0.0001145 and 0.0001146 | Activity % (human CoaB (HCoaB); [5]): 63.96% and 63.87% | activity at 50 µM (human CoaB (HCoaB); [5]): 75.6% | Inhibition % (human CoaB (HCoaB); 50 uM 1b): 36.13% and 24.38% | inhibition at 50 µM (human CoaB (HCoaB); 50 uM 1b): 36% | Activity (human CoaB (HCoaB); 50 uM 1b): 0.0001047 and 0.000088534 and 0.000088398 | Activity % (human CoaB (HCoaB); [6]): 56.11% and 53.46% | activity at 100 µM (human CoaB (HCoaB); [6]): 60.5% | Inhibition % (human CoaB (HCoaB); 100 uM 1b): 46.54% and 39.47% | inhibition at 100 µM (human CoaB (HCoaB); 100 uM 1b): 43.9% | Activity (human CoaB (HCoaB); 100 uM 1b): 0.000083783 and 0.000077656 and 0.000074000 | Activity (human CoaB (HCoaB); 200 uM 1b, compound interference at 200uM makes the assay unreliable): -0.000004063 and 0.000002127 and -0.000001796 | IC50 (MsmCoaBC): 260 ± 20 nM | inhibition, replicates 1-3 (MsmCoaBC; [7]): 86.05 and 84.82 and 84.29 | reaction rate (slope of absorbance at 360 nm versus time), replicates 1-3 (MsmCoaBC; [7]): 0.000051231 and 0.000045511 and 0.000049507 | remaining activity relative to control, replicates 1-3 (MsmCoaBC; [7]): 15.71 and 13.95 and 15.18 | inhibition, replicates 1-3 (MsmCoaBC; [8]): 94.07 | reaction rate (slope of absorbance at 360 nm versus time), replicates 1-3 (MsmCoaBC; [8]): -0.000000851 and -0.000003095 and 0.000019348 | remaining activity relative to control, replicates 1-3 (MsmCoaBC; [8]): -0.2608 and -0.9489 and 5.932 | Activity % (MsmCoaBC; [9]): 96.69% and 95.33% | activity at 0.015625 µM (MsmCoaBC; [9]): 98.6% | Activity (slope of absorbance at 360 nm vs time) (MsmCoaBC; [10]): 0.0003217 and 0.0003154 and 0.0003109 | Inhibition % (MsmCoaBC; [10]): 3.31% and 4.67% and 1.38% | Activity % (MsmCoaBC; [11]): 95.46% and 96.92% | activity at 0.03125 µM (MsmCoaBC; [11]): 93.2% | Activity (slope of absorbance at 360 nm vs time) (MsmCoaBC; [12]): 0.0003041 and 0.0003114 and 0.0003161 | Inhibition % (MsmCoaBC; [12]): 4.54% and 3.08% and 6.75% | Activity % (MsmCoaBC; [13]): 92.06% and 92.26% | activity at 0.0625 µM (MsmCoaBC; [13]): 85.7% | Activity (slope of absorbance at 360 nm vs time) (MsmCoaBC; [14]): 0.0002796 and 0.0003003 and 0.0003009 | Inhibition % (MsmCoaBC; [14]): 7.74% and 14.27% | inhibition at 0.0625 µM (MsmCoaBC; [14]): 7.94% | Activity % (MsmCoaBC; [15]): 48.31% and 55.06% | activity at 0.25 µM (MsmCoaBC; [15]): 46% | Activity (slope of absorbance at 360 nm vs time) (MsmCoaBC; [16]): 0.0001501 and 0.0001576 and 0.0001796 | Inhibition % (MsmCoaBC; [16]): 44.94% and 53.97% | inhibition at 0.25 µM (MsmCoaBC; [16]): 51.7% | Activity % (MsmCoaBC; MsmCoaBC, 0.5 uM 1b, relative to average DMSO CT, replicates R1-R3): 12.28% and 18.89% and 25.96% | Activity (slope of absorbance at 360 nm vs time) (MsmCoaBC; [17]): 0.000040045 and 0.000061602 and 0.000084683 | Inhibition % (MsmCoaBC; [17]): 74.04% and 87.72% | inhibition at 0.5 µM (MsmCoaBC; [17]): 81.1% | IC50 (MtbCoaBC [1]): 300 nM | mode of inhibition (MtbCoaBC [2]; relative to CTP): uncompetitive inhibition | mode of inhibition (MtbCoaBC [2]; relative to PPA): uncompetitive inhibition | CMP formation rate, uM CMP/uM protein.s-1 (MtbCoaBC [3]; 0.0625 uM 1b, 31.25 uM L-cysteine): 0.1694 uM CMP/uM protein.s-1 and 0.1962 uM CMP/uM protein.s-1 and 0.1676 uM CMP/uM protein.s-1 | CMP formation rate, uM CMP/uM protein.s-1 (MtbCoaBC [3]; 0.0625 uM 1b, 62.5 uM L-cysteine): 0.2113 uM CMP/uM protein.s-1 and 0.2325 uM CMP/uM protein.s-1 and 0.2281 uM CMP/uM protein.s-1 | CMP formation rate, uM CMP/uM protein.s-1 (MtbCoaBC [3]; 0.0625 uM 1b, 250 uM L-cysteine): 0.2822 uM CMP/uM protein.s-1 and 0.2759 uM CMP/uM protein.s-1 and 0.2797 uM CMP/uM protein.s-1 | CMP formation rate, uM CMP/uM protein.s-1 (MtbCoaBC [3]; 0.0625 uM 1b, 500 uM L-cysteine): 0.3148 uM CMP/uM protein.s-1 and 0.3211 uM CMP/uM protein.s-1 and 0.3277 uM CMP/uM protein.s-1 | CMP formation rate, uM CMP/uM protein.s-1 (MtbCoaBC [3]; 0.250 uM 1b, 31.25 uM L-cysteine): 0.1192 uM CMP/uM protein.s-1 and 0.1053 uM CMP/uM protein.s-1 and 0.1262 uM CMP/uM protein.s-1 | CMP formation rate, uM CMP/uM protein.s-1 (MtbCoaBC [3]; 0.250 uM 1b, 62.5 uM L-cysteine): 0.1329 uM CMP/uM protein.s-1 and 0.1247 uM CMP/uM protein.s-1 and 0.1395 uM CMP/uM protein.s-1 | CMP formation rate, uM CMP/uM protein.s-1 (MtbCoaBC [3]; 0.250 uM 1b, 250 uM L-cysteine): 0.1577 uM CMP/uM protein.s-1 and 0.155 uM CMP/uM protein.s-1 and 0.1593 uM CMP/uM protein.s-1 | CMP formation rate, uM CMP/uM protein.s-1 (MtbCoaBC [3]; 0.250 uM 1b, 500 uM L-cysteine): 0.1688 uM CMP/uM protein.s-1 and 0.1557 uM CMP/uM protein.s-1 and 0.1625 uM CMP/uM protein.s-1 | mode of inhibition (MtbCoaBC [3]; relative to L-cysteine, in words): uncompetitive inhibition | MIC (M. tuberculosis H37Rv; 7H9/ADC/Glycerol): > 250 µM | MIC (M. tuberculosis H37Rv; 7H9/Cholesterol/Tyloxapol): > 250 µM | MIC (M. tuberculosis H37Rv; GAST/Fe): 125 µM (≈ 30.8 µg/mL) | sensitisation on incremental silencing of CoaBC [4]: did not sensitise M. tuberculosis further
